Among the data in patent US7994318B2, “Coumarin derivatives useful as TNFα inhibitors” (Chugai Seiyaku Kabushiki Kaisha, priority 2000, dated 2011) are IC50 values, retold here.

pIC50: −log10 of the molar value.

The subject of the test is TNFα. Briefly: In vitro assay: TNFα ELISA of supernatants of LPS-stimulated human PBMC. The test is classed as cell-based. Particulars: human PBMC pretreated with drug 60 min, stimulated with LPS (E. coli O55:B5) 100 ng/mL, overnight culture, TNFα in supernatant by ELISA; read-out: 50% Inhibition of TNFα level (IC50). As to the method: Enzyme-linked immunosorbent assays (ELISA) for TNFα can be performed in a conventional manner (Blood, 75, 40-47 (1990)). Human PBMC are isolated from heparinized venous blood obtained from healthy volunteers by Ficoll-Hypaque density centrifugation. The cells are cultured in RPMI1640 medium supplemented with 5% heat-inactivated fetal calf serum and antibiotics. PBMC (5×10E5 cells/mL) in 0.2 mL aliquot are pretreated with drugs in DMSO for 60 min at 37° C. in 96 well round-bottomed tissue culture plates. Thereafter, PBMC in the presence or absence of compound are stimulated with 1 mg/mL LPS from E. coli O55:B5 at a final concentration of 100 ng/mL. After overnight culture, the supernatants are harvested and assayed immediately for TNFα levels from each well. The concentration of TNFα in the supernatant is determined by human TNFα ELISA Kit according to the manufacture's directions.
Active compounds are characterized by the concentration of the compound that caused 50% inhibition of TNFα level (IC50).
A general note: An ELISA detects its analyte on a solid surface through an enzyme-linked reagent.
`Cc1c(Cc2ccccc2)c(=O)oc2cc(C(C)(F)F)ccc12` [Example 26-11]: the negative logarithm of the IC50 (pIC50) is 5.05. For `Cc1c(Cc2ccccc2)c(=O)oc2cc(Cn3ccnc3N)c(Cl)cc12` [Example 26-16] the value was 5.07. Then `Cc1c(Cc2ccccc2)c(=O)oc2cc(C(O)c3ccsc3)ccc12` (stereo not shown) [Example 26-22], with 5.09; and `Cc1c(Cc2ccccc2)c(=O)oc2cc(C(F)C#N)ccc12` (stereo not shown) [Example 26-24], with 5.77.

One may read the pIC50 as the negative decadic logarithm of the IC50, by convention in mol/L.
